In patent US20090304692A1, “TRIAZINE COMPOUNDS AS PI3 KINASE AND MTOR INHIBITORS” (Wyeth, priority 2008, published 2009) one finds IC50 data, which are given here for eight molecules.

Some results are limits rather than exact numbers.

Test [1] deals with human breast MDA-MB-361 tumor cell line. As to the kind of experiment: In vitro cell culture growth assay (MTS), MDA-MB-361. Type of test: cell-based. To be noted: Homo sapiens, MDA-MB-361, 72 h; MTS cell growth assay, three days after drug treatment; read-out: IC50 MDA-MB-361. A general note: Formazan colour is commonly taken as a measure of viable cells.
Test [2] deals with human prostate PC3-mm2 tumor cell line. The experiment in a line: In vitro cell culture growth assay (MTS), PC3-mm2. Type of test: cell-based. To be noted: Homo sapiens, PC3MM2, 72 h, MTS cell growth assay, three days after drug treatment; read-out: IC50 PC3-mm2.
In a further test the target is PI3K-γ (Homo sapiens, UniProt P48736). As to the kind of experiment: PI3K-gamma fluorescence polarization assay. To be noted: read-out: IC50 PI3Kγ.
In a further test the target is PI3K-α (Homo sapiens, UniProt P42336). As to the kind of experiment: PI3K-alpha fluorescence polarization assay. To be noted: read-out: IC50 PI3Kα. (In fluorescence polarisation assays a small probe gives low polarisation when free and higher when bound to something large.)
A further test concerns the target Human mTOR (FLAG-TOR) (Homo sapiens, UniProt P42345). The experiment in a line: mTOR kinase assay (DELFIA format, purified enzyme). Type of test: biochemical. To be noted: read-out: IC50 mTOR.

Chain of PI3K-α (P42336 whole entry, species assumed): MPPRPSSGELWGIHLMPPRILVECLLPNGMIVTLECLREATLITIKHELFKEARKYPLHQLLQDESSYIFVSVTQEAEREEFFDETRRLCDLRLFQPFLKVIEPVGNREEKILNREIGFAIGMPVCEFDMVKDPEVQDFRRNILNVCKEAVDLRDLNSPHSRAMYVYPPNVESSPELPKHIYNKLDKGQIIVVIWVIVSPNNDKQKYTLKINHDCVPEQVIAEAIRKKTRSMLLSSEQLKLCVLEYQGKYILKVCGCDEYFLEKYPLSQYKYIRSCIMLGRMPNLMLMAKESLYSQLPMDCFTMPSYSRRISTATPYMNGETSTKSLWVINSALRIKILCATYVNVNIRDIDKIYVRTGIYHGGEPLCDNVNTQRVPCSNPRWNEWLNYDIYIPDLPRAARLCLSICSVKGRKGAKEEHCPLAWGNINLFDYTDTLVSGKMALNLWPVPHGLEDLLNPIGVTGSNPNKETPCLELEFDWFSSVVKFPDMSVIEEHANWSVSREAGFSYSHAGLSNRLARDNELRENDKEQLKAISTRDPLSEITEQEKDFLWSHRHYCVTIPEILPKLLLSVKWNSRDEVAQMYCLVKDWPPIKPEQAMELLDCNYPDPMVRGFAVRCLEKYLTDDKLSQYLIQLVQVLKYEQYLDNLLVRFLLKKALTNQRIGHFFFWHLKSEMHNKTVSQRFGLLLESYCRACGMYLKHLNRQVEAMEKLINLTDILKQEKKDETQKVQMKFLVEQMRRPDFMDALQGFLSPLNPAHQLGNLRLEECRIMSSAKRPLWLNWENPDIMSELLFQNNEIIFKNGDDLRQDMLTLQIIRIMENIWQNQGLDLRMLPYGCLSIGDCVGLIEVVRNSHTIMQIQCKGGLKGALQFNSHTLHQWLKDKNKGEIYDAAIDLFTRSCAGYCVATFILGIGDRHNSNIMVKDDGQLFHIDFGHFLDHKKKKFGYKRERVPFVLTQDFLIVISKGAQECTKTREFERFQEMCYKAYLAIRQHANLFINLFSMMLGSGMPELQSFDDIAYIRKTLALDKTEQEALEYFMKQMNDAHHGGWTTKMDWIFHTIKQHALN
Chain of PI3K-α (P27986 whole entry partner, species assumed): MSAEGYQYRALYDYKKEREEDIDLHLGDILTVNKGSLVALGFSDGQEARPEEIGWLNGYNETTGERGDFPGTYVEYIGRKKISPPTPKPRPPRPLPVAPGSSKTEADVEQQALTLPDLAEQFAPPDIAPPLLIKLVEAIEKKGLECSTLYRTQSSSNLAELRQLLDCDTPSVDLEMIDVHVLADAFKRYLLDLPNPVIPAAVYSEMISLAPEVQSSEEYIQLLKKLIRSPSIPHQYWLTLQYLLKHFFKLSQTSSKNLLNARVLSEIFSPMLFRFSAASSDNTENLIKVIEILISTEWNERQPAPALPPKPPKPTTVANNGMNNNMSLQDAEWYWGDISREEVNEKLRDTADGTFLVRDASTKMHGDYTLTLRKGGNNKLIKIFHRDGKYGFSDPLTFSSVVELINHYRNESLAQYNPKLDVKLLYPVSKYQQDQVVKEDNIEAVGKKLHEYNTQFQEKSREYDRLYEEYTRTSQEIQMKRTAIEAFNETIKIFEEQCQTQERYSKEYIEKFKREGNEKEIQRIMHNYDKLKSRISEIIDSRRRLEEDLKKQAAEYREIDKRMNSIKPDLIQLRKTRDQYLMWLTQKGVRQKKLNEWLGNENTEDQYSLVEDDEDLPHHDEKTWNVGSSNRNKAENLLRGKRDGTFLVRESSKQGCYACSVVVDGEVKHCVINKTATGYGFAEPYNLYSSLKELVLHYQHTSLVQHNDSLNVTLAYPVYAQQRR
Chain of Human mTOR (FLAG-TOR) (P42345 1360-2549 limits assumed): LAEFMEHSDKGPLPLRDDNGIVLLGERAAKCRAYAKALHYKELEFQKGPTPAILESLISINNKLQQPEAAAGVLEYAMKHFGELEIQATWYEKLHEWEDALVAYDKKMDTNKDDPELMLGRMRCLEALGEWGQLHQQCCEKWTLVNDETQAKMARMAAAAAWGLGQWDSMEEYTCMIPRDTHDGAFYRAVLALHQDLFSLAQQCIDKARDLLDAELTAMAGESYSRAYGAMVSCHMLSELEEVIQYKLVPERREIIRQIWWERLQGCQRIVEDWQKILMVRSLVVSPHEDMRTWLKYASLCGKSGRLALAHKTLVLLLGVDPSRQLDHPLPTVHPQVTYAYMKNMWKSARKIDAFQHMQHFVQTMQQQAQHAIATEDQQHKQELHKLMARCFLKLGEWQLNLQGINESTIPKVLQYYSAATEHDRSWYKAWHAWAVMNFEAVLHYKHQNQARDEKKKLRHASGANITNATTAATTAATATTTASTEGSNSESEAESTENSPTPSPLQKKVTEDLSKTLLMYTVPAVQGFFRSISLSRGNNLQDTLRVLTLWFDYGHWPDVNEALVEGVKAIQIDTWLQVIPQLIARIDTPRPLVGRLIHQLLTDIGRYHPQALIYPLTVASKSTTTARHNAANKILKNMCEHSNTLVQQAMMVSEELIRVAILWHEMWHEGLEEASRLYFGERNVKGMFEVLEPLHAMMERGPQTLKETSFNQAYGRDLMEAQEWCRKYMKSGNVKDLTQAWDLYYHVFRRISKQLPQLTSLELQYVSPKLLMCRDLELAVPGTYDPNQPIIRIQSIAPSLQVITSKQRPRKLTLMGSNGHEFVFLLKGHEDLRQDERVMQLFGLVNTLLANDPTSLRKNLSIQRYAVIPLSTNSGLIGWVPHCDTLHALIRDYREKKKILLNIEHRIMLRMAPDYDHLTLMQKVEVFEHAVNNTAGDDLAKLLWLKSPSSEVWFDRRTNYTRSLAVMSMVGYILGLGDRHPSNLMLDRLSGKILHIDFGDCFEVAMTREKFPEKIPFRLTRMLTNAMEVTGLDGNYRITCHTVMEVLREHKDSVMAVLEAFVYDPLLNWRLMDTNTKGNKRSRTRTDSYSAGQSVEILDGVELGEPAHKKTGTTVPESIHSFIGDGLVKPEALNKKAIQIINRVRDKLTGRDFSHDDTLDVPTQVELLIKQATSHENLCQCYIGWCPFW
Chain of PI3K-γ (P48736 whole entry, species assumed): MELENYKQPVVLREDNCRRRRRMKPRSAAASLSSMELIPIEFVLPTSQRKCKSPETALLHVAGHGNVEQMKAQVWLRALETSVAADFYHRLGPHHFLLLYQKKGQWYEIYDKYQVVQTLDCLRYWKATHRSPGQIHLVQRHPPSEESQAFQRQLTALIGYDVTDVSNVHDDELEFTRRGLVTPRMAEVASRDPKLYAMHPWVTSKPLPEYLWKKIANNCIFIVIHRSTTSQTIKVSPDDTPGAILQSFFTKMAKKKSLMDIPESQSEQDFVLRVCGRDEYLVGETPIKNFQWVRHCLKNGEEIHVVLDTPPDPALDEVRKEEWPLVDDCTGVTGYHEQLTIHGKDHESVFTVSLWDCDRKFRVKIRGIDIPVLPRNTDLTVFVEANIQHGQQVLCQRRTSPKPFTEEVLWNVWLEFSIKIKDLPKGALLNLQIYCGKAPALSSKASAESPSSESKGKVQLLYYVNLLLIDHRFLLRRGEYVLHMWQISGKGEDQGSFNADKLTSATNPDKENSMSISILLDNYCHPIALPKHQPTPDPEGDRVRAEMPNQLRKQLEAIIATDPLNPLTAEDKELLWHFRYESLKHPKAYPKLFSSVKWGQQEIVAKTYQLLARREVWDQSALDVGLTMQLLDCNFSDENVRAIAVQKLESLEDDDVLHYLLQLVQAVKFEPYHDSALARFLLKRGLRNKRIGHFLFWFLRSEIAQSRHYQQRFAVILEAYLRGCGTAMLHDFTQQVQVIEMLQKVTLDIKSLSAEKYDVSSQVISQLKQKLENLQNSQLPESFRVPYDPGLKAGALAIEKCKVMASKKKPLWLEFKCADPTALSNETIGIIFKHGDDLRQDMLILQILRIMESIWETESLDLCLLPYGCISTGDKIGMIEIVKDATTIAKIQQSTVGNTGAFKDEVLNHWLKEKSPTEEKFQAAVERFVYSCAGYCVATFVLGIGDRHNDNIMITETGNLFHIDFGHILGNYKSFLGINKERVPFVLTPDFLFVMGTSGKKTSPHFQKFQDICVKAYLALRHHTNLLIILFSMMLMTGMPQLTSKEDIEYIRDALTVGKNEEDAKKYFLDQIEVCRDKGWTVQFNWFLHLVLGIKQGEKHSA

For `CC(C)(C)OC(=O)N1CC(Nc2nc(-c3ccc(NC(=O)Nc4ccc(F)cc4)cc3)nc(N3CCOCC3)n2)C1` [Example 13, tert-butyl 3-{[4-(4-{[(4-fluorophenyl)carbamoyl]-amino}phenyl)-6-morpholin-4-yl-1,3,5-triazin-2-yl]amino}azetidine-1-carboxylate], the IC50 (in general, the point on the concentration scale where inhibition reaches its midpoint) came out at 603 nM in test [1]; 845 nM in test [2]; 879 nM at PI3K-γ; 51 nM on PI3K-α; 11.5 nM on Human mTOR (FLAG-TOR).
Regarding `CC(C)(C)OC(=O)N1CC(Nc2nc(-c3ccc(NC(=O)Nc4ccccc4)cc3)nc(N3CCOCC3)n2)C1` [Example 14, tert-butyl 3-[(4-morpholin-4-yl-6-{4-[(phenylcarbamoyl)amino]phenyl}-1,3,5-triazin-2-yl)amino]azetidine-1-carboxylate], the concentration for half-maximal inhibition (IC50) in test [1] was 376 nM; in test [2], 590 nM; at PI3K-γ, 154 nM; on PI3K-α, 25 nM; at Human mTOR (FLAG-TOR) it was 8.45 nM.
As to `CC(C)(C)OC(=O)N1CC(Nc2nc(-c3ccc(NC(=O)Nc4cccnc4)cc3)nc(N3CCOCC3)n2)C1` [Example 15, tert-butyl 3-[(4-morpholin-4-yl-6-{4-[(pyridine-3-ylcarbamoyl)amino]phenyl}-1,3,5-triazin-2-yl)amino]azetidine-1-carboxylate], the IC50 came to 255 nM in test [1]; 328 nM in test [2]; 177 nM at PI3K-γ; 23 nM on PI3K-α; 2.5 nM on Human mTOR (FLAG-TOR).
Regarding `O=C(Nc1ccccc1)Nc1ccc(-c2nc(NC3CNC3)nc(N3CCOCC3)n2)cc1` [Example 17, 1-{4-[4-(azetidin-3-ylamino)-6-morpholin-4-yl-1,3,5-triazin-2-yl]phenyl}-3-phenylurea], the IC50 came out at 501 nM in test [1]; 994 nM in test [2]; 90 nM at PI3K-γ; 8 nM at PI3K-α; 14 nM at Human mTOR (FLAG-TOR).
Take `O=C(Nc1ccc(-c2nc(NC3CNC3)nc(N3CCOCC3)n2)cc1)Nc1cccnc1` [Example 18, 1-{4-[4-(azetidin-3-ylamino)-6-morpholin-4-yl-1,3,5-triazin-2-yl]phenyl}-3-pyridin-3-ylurea]: the IC50 was 2660 nM in test [1]; 7100 nM in test [2]; 71 nM on PI3K-γ; 9 nM on PI3K-α; 36 nM on Human mTOR (FLAG-TOR).
With `O=C(Nc1ccc(F)cc1)Nc1ccc(-c2nc(NC3CNC3)nc(N3CCOCC3)n2)cc1` [Example 19, 1-{4-[4-(azetidin-3-ylamino)-6-morpholin-4-yl-1,3,5-triazin-2-yl]phenyl}-3-(4-fluorophenyl)urea], the IC50 amounted to 1030 nM in test [1]; 1600 nM in test [2]; 206 nM on PI3K-γ; 23 nM on PI3K-α; 39 nM on Human mTOR (FLAG-TOR).
`Cc1ccc(NC(=O)Nc2ccc(-c3nc(NC4CNC4)nc(N4CCOCC4)n3)cc2)cc1` [Example 20, 1-{4-[4-(azetidin-3-ylamino)-6-morpholin-4-yl-1,3,5-triazin-2-yl]phenyl}-3-(4-methylphenyl)urea]: the IC50 is > 10000 nM in test [1]; > 10000 nM in test [2]; 258 nM at PI3K-γ; 41 nM at PI3K-α; 30.5 nM on Human mTOR (FLAG-TOR).
With `CC(C)(C)OC(=O)N1CC(Nc2nc(-c3ccc(NC(=O)Nc4ccncc4)cc3)nc(N3CCOCC3)n2)C1` [Example 21, tert-butyl 3-[(4-morpholin-4-yl-6-{4-[(pyridine-4-ylcarbamoyl)amino]phenyl}-1,3,5-triazin-2-yl)amino]azetidine-1-carboxylate], the IC50 in test [1] was 129 nM; in test [2] it was 246 nM; at PI3K-γ, 92 nM; at PI3K-α it was 22 nM; on Human mTOR (FLAG-TOR), 1.75 nM.
